Active and inactive are the calls of the source. The rule behind the calls is not given here.
How the values were obtained:
[1] = target: T1, Protein cereblon/Interleukin-1 receptor-associated kinase 3 (Homo sapiens, UniProt Q9Y616+Q96SW2); test: Protac activity at CRBN/IRAK3 in LPS-induced human THP1 cells assessed as induction of IRAK3 degradation at 0.1 uM measured after 6 hrs by HPLC-MS based global proteomic analysis relative to control; assay type: cell-based; details: THP-1
THP-1 [2] = test: Selectivity ratio of Kd(app) for displacement of polymer supported probe 25 binding to IRAK1 in human THP-1 cell lysates to Kd(app) for displacement of polymer supported probe 25 binding to IRAK3 in human THP-1 cell lysates
[3] = target: Cyclin-C/Cyclin-dependent kinase 19 (Homo sapiens, UniProt P24863+Q9BWU1); test: Inhibition of CDK11/cyclin C (unknown origin); assay type: protein-complex assay
Sequence of Cyclin-C/Cyclin-dependent kinase 19 (Q9BWU1 whole entry): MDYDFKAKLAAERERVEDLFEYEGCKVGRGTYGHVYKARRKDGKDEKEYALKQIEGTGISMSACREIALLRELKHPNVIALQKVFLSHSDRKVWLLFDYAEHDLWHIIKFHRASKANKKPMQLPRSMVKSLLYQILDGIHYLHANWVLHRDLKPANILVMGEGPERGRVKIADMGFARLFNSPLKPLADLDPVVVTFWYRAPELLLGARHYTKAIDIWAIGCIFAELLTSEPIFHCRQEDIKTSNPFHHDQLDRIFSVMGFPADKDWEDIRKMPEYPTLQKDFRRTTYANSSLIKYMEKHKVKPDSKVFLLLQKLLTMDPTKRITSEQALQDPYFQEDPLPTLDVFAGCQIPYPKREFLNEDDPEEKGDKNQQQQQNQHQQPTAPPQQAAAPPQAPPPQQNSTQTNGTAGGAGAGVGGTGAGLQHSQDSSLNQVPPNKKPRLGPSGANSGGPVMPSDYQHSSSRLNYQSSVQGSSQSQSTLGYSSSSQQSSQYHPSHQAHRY
Sequence of Cyclin-C/Cyclin-dependent kinase 19 (P24863 whole entry): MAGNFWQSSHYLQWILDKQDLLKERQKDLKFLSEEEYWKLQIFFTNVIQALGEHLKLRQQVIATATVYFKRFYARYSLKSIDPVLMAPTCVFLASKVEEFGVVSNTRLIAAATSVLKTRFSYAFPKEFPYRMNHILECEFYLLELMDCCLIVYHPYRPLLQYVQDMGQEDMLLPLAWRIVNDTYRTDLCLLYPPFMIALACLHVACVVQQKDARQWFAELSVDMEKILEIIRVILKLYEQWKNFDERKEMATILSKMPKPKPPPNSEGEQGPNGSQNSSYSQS

[4] = target: Protein cereblon/Delta(24)-sterol reductase (Homo sapiens) (UniProt Q15392+Q96SW2); test: Protac activity at CRBN/DHCR24 in LPS-induced human THP1 cells assessed as induction of DHCR24 degradation at 0.1 uM measured after 6 hrs by HPLC-MS based global proteomic analysis relative to control; assay type: cell-based; details: THP-1
Sequence of Protein cereblon/Delta(24)-sterol reductase (Homo sapiens) (Q15392 whole entry, looked up): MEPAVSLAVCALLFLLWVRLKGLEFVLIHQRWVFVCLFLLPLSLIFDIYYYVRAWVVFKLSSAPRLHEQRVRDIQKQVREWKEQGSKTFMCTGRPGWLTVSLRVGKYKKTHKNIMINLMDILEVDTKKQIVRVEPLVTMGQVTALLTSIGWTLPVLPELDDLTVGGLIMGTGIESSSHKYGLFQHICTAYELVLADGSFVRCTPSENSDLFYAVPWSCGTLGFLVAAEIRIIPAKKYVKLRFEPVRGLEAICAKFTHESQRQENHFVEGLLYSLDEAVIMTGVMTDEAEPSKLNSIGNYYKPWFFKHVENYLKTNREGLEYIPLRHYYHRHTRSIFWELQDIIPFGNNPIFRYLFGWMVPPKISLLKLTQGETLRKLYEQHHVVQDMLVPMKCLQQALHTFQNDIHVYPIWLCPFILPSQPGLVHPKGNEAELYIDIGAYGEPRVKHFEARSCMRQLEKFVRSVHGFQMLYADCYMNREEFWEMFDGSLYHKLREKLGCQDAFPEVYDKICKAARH
Sequence of Protein cereblon/Delta(24)-sterol reductase (Homo sapiens) (Q96SW2 whole entry, looked up): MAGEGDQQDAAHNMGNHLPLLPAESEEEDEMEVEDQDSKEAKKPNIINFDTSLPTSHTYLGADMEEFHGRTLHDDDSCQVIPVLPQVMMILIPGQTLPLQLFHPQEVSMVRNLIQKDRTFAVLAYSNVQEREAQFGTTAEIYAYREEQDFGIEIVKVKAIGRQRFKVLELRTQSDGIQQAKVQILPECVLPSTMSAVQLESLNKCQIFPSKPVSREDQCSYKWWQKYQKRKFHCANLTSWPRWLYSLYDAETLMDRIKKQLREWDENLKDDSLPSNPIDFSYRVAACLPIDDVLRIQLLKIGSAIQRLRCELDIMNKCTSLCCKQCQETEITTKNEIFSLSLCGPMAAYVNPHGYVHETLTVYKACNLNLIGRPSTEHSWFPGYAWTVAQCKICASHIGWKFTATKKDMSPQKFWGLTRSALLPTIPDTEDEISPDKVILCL

THP-1 [5] = test: Selectivity ratio of Kd(app) for displacement of polymer supported probe 25 binding to CDK8 in human THP-1 cell lysates to Kd(app) for displacement of polymer supported probe 25 binding to IRAK3 in human THP-1 cell lysates
[6] = target: T1, Protein cereblon/Interleukin-1 receptor-associated kinase 3; test: Protac activity at CRBN/IRAK3 in human THP1 cells assessed as induction of IRAK3 degradation at 0.1 uM measured after 6 hrs in presence of 10 uM thalidomide by Western blot analysis; assay type: cell-based; details: THP-1
[7] = target: T1, Protein cereblon/Interleukin-1 receptor-associated kinase 3; test: Protac activity at CRBN/IRAK3 in human THP1 cells assessed as induction of IRAK3 degradation at 0.1 uM measured after 6 hrs in presence of NEDD8-activating enzyme inhibitor MLN4924 by Western blot analysis; assay type: cell-based; details: THP-1
[8] = target: Protein cereblon/Interleukin-1 receptor-associated kinase 4 (Homo sapiens) (UniProt Q9NWZ3+Q96SW2); test: Protac activity at CRBN/IRAK4 in LPS-induced human THP1 cells assessed as induction of IRAK4 degradation at 0.1 uM measured after 6 hrs by HPLC-MS based global proteomic analysis; assay type: cell-based; details: THP-1
Sequence of Protein cereblon/Interleukin-1 receptor-associated kinase 4 (Homo sapiens) (Q96SW2 whole entry, looked up, one chain of several): as the sequence (Q96SW2 whole entry, looked up) above

[9] = target: T1, Protein cereblon/Interleukin-1 receptor-associated kinase 3; test: Protac activity at CRBN/IRAK3 in human THP1 cells assessed as induction of IRAK3 degradation at 0.1 uM measured after 6 hrs in presence of IRAK3 ligand cis-1-(4-(4-((5-Isopropylpyrrolo[2,1-f][1,2,4]triazin-4-yl)amino)-cyclohexyl)piperazin-1-yl)ethanone by Western blot analysis; assay type: cell-based; details: THP-1
[10] = target: CDK8/Cyclin C (Homo sapiens) (UniProt P49336+P24863); test: Inhibition of CDK8/cyclin C (unknown origin) at 0.1 uM relative to control; assay type: protein-complex assay
[11] = target: Cyclin-dependent kinase 19 (Homo sapiens, UniProt Q9BWU1); test: Displacement of polymer supported probe 25 binding to CDK11 in human THP-1 cell lysates preincubated for 45 mins under shaking condition followed by probe addition and measured after 30 mins by mass spectrometry based chemoproteomic analysis; assay type: subcellular; details: read-out: Kd(app)
Sequence of Cyclin-dependent kinase 19 (Q9BWU1 whole entry): as the sequence (Q9BWU1 whole entry) above

[12] = target: T2, Interleukin-1 receptor-associated kinase 4 (Homo sapiens, UniProt Q9NWZ3); test: Inhibition of recombinant human full-length His-tagged IRAK4 expressed in baculovirus expression system using 5-FAM-IPTSPITTTYFFFKKK-COOH as substrate measured after 240 mins by mobility shift assay
T2 sequence (Q9NWZ3 whole entry): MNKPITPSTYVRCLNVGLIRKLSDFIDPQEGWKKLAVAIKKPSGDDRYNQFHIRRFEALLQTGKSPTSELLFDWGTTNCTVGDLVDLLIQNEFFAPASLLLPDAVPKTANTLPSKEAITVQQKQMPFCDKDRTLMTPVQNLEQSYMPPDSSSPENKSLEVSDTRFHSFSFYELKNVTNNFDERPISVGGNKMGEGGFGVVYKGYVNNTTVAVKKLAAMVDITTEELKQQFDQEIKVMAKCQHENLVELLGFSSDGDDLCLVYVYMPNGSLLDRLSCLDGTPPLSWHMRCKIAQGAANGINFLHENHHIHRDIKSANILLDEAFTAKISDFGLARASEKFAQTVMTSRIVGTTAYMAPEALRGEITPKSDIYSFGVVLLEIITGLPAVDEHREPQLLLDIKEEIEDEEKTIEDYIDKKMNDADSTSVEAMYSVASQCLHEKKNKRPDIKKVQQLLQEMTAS

[13] = target: Cyclin-dependent kinase 8 (Homo sapiens, UniProt P49336); test: Displacement of polymer supported probe 25 binding to CDK8 in human THP-1 cell lysates preincubated for 45 mins under shaking condition followed by probe addition and measured after 30 mins by mass spectrometry based chemoproteomic analysis; assay type: subcellular; details: read-out: Kd(app)
Sequence of Cyclin-dependent kinase 8 (P49336 whole entry): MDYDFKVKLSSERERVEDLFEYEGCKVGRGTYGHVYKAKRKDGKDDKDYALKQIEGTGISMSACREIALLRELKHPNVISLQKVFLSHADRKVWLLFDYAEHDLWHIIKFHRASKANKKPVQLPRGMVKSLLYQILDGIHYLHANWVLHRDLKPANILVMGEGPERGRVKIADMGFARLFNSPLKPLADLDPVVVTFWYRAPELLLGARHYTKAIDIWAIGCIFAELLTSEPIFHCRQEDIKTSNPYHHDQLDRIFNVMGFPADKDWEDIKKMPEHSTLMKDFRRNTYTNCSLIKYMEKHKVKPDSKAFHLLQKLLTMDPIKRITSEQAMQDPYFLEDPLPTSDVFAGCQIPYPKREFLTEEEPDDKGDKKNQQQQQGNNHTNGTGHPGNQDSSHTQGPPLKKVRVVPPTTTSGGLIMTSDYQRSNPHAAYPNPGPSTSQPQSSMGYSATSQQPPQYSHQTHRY

[14] = target: T3, Interleukin-1 receptor-associated kinase 3 (Homo sapiens, UniProt Q9Y616); test: Inhibition of kinase tracer 236 binding to recombinant human full-length GST-tagged IRAK3 expressed in insect cells by Lanthascreen Eu kinase binding assay
T3 sequence (Q9Y616 whole entry): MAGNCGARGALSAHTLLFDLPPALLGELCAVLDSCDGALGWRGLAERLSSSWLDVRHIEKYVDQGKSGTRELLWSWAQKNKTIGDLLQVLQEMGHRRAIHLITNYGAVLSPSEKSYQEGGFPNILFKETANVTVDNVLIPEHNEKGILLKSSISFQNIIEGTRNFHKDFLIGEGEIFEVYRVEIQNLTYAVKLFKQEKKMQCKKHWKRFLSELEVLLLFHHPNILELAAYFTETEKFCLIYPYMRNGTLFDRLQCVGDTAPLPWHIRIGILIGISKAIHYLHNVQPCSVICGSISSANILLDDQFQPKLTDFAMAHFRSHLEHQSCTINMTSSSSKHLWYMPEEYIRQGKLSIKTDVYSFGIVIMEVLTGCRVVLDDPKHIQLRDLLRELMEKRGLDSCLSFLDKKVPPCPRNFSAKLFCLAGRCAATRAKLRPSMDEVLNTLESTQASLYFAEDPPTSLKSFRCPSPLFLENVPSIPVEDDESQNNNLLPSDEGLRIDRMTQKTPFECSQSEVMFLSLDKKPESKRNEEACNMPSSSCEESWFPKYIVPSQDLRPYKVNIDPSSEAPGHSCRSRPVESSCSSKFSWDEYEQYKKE

[15] = target: T3, Interleukin-1 receptor-associated kinase 3; test: Displacement of polymer supported probe 25 binding to IRAK3 in human THP-1 cell lysates preincubated for 45 mins under shaking condition followed by probe addition and measured after 30 mins by mass spectrometry based chemoproteomic analysis; assay type: subcellular; details: read-out: Kd(app)
[16] = target: Cyclin-C/Cyclin-dependent kinase 19 (Homo sapiens) (UniProt Q9BWU1+P24863); test: Inhibition of CDK11/cyclin C (unknown origin) at 0.1 uM relative to control; assay type: protein-complex assay
[17] = target: T1, Protein cereblon/Interleukin-1 receptor-associated kinase 3; test: Protac activity at CRBN/IRAK3 in human THP1 cells assessed as induction of IRAK3 degradation at 0.1 uM preincubated for 16 hrs followed by compound washout and measured after 24 hrs by Western blot analysis; assay type: cell-based; details: THP-1
THP-1 [18] = test: Selectivity ratio of Kd(app) for displacement of polymer supported probe 25 binding to IRAK4 in human THP-1 cell lysates to Kd(app) for displacement of polymer supported probe 25 binding to IRAK3 in human THP-1 cell lysates

T1 sequence (Q96SW2 whole entry, looked up, one chain of several): as the sequence (Q96SW2 whole entry, looked up) above

CC(C)c1ccn2ncnc(N[C@H]3CC[C@@H](N4CCN(C(=O)CCC(=O)N5CCC(CCN6CCN(c7ccc8c(c7)C(=O)N(C7CCC(=O)NC7=O)C8=O)CC6)CC5)CC4)CC3)c12 (stereo partly drawn) gave a fold change (FC) [1] of -1.8, a Selectivity ratio (THP-1 [2]) of 82 and an IC50 [3] of 16 nM. For the same compound, the fold change (FC) [4] was -1.5, the Selectivity ratio (THP-1 [5]) was 41 and the Activity [6] was “inactive”. The Activity [7] was “inactive”, the Activity [8] was “inactive” and the Activity [9] was “inactive”. It also gave an inhibition [10] of 69%, a Kd [11] of over 30000 nM and an IC50 [12] of 1400 nM. It also gave a Kd [13] of 1400 nM, an IC50 [14] of 5 nM and a Kd [15] of 34 nM. The inhibition [16] was 82%, the Activity [17] was “inactive” and the Selectivity ratio (THP-1 [18]) was 105.

Reference: ChEMBL document CHEMBL4725370, “Discovery of Proteolysis-Targeting Chimera Molecules that Selectively Degrade the IRAK3 Pseudokinase” (J Med Chem, 2020)
